Test results taken from patent US12583858B2 (Genentech, Inc., priority 2015, dated 2026).

Target: T1, TDO2 (Homo sapiens, UniProt P48775)
T1 construct: decreased levels of NFK in SW48 cells (high TDO expressing cells)
Assay: TDO2 cell assay (NFK GreenScreen, SW48 cells)
Type: cell-based
Settings: SW48 cells (high TDO expressing), 200 uM tryptophan, 24 hours; Table 3; read-out: TDO2 Cell Fluor EC50

T1 sequence (P48775 whole entry): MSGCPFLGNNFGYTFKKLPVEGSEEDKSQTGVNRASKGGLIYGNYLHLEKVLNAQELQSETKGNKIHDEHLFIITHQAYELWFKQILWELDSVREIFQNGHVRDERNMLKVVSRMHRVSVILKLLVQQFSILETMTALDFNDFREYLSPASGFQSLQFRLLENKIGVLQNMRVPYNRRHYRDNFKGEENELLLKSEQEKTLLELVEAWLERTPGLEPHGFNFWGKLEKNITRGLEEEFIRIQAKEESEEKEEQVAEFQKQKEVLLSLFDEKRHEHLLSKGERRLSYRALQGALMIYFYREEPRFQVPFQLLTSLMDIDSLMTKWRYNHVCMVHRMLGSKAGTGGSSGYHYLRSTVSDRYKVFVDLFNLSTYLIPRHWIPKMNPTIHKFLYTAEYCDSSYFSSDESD

EC50 [µM]	Structure (SMILES)
> 25	CC(O)(c1ncc[nH]1)C1c2ccccc2-c2cncn21 (single isomer, unassigned) [Example 143a]
> 25	CC(O)(c1ncc[nH]1)C1c2ccccc2-c2cncn21 (single isomer, unassigned) [Example 143b]
16	CC(O)(c1ncc[nH]1)C1c2ccccc2-c2cncn21 (single isomer, unassigned) [Example 143c]
> 25	CC(O)(c1ncc[nH]1)C1c2ccccc2-c2cncn21 (single isomer, unassigned) [Example 143d]
1	OC1(C2c3ccccc3-c3cncn32)CCCOC1 (single isomer, unassigned) [Example 144a]
> 25	OC1(C2c3ccccc3-c3cncn32)CCCOC1 (single isomer, unassigned) [Example 144b]
2.1	OC1(C2c3ccccc3-c3cncn32)CCCOC1 (single isomer, unassigned) [Example 144c]
> 25	OC1(C2c3ccccc3-c3cncn32)CCCOC1 (single isomer, unassigned) [Example 144d]
4.2	N#CC1CCC(O)(C2c3ccccc3-c3cncn32)CC1 (single isomer, unassigned) [Example 145a]
1.1	N#CC1CCC(O)(C2c3ccccc3-c3cncn32)CC1 (single isomer, unassigned) [Example 145b]
19	N#CC1CCC(O)(C2c3ccccc3-c3cncn32)CC1 (single isomer, unassigned) [Example 145c]
> 25	N#CC1CCC(O)(C2c3ccccc3-c3cncn32)CC1 (single isomer, unassigned) [Example 145d]
0.33	OC1c2cnnn2CCC1C1c2ccccc2-c2cncn21 (single isomer, unassigned) [Example 146a]
> 25	OC1c2cnnn2CCC1C1c2ccccc2-c2cncn21 (single isomer, unassigned) [Example 146b]
0.88	O[C@@H](C1CCCCC1)[C@@H]1c2ccccc2-c2cncn21 (single isomer, unassigned) [Example 148c]
> 25	O[C@@H](C1CCCCC1)[C@@H]1c2ccccc2-c2cncn21 (single isomer, unassigned) [Example 148d]
0.19	NC(=O)c1nc2c(s1)CCC(C1c3ccccc3-c3cncn31)C2O (single isomer, unassigned) [Example 149a]
0.15	NC(=O)c1nc2c(s1)CCC(C1c3ccccc3-c3cncn31)C2O (single isomer, unassigned) [Example 149c]
9.6	NC(=O)c1nc2c(s1)CCC(C1c3ccccc3-c3cncn31)C2O (single isomer, unassigned) [Example 149d]
1.4	NC(=O)c1nc2c(s1)CCC(C1c3ccccc3-c3cncn31)C2O (single isomer, unassigned) [Example 149e]
> 25	NC(=O)c1nc2c(s1)CCC(C1c3ccccc3-c3cncn31)C2O (single isomer, unassigned) [Example 149f]
24.2	NC(=O)c1nc2c(s1)CCC(C1c3ccccc3-c3cncn31)C2O (single isomer, unassigned) [Example 149g]
24	NC(=O)c1nc2c(s1)CCC(C1c3ccccc3-c3cncn31)C2O (single isomer, unassigned) [Example 149h]

Continued, molecule first:

Structure (SMILES)	EC50 [µM]
CCC(O)C1c2ccccc2-c2cncn21 (single isomer, unassigned) [Example 137a]	> 25
CCC(O)C1c2ccccc2-c2cncn21 (single isomer, unassigned) [Example 137c]	0.2
O[C@@H](C1CCOCC1)[C@H]1c2ccccc2-c2cncn21 (single isomer, unassigned) [Example 138b]	> 25
O[C@@H](C1CCOCC1)[C@@H]1c2ccccc2-c2cncn21 (single isomer, unassigned) [Example 138c]	> 25
O[C@@H](C1CCOCC1)[C@@H]1c2ccccc2-c2cncn21 (single isomer, unassigned) [Example 138d]	10
Cn1cc2c(n1)C(O)C(C1c3ccccc3-c3cncn31)CC2 (single isomer, unassigned) [Example 139-1a]	5.3
Cn1cc2c(n1)C(O)C(C1c3ccccc3-c3cncn31)CC2 (single isomer, unassigned) [Example 139-1b]	> 25
Cn1cc2c(n1)[C@@H](O)[C@@H]([C@@H]1c3ccccc3-c3cncn31)CC2 (single isomer, unassigned) [Example 139-1c]	> 25
Cn1cc2c(n1)[C@@H](O)[C@@H]([C@@H]1c3ccccc3-c3cncn31)CC2 (single isomer, unassigned) [Example 139-1d]	0.7
Cn1cc2c(n1)C(O)C(C1c3ccccc3-c3cncn31)CC2 (single isomer, unassigned) [Example 139-1e]	> 25
Cn1cc2c(n1)C(O)C(C1c3ccccc3-c3cncn31)CC2 (single isomer, unassigned) [Example 139-1f]	0.21
OC1c2cnnn2CCC1C1c2ccccc2-c2cncn21 (single isomer, unassigned) [Example 139a]	> 25
OC1c2cnnn2CCC1C1c2ccccc2-c2cncn21 (single isomer, unassigned) [Example 139b]	1
NC(=O)C1CCC(O)(C2c3ccccc3-c3cncn32)CC1 (single isomer, unassigned) [Example 140a]	> 25
NC(=O)C1CCC(O)(C2c3ccccc3-c3cncn32)CC1 (single isomer, unassigned) [Example 140b]	> 25
NC(=O)C1CCC(O)(C2c3ccccc3-c3cncn32)CC1 (single isomer, unassigned) [Example 140c]	> 25
NC(=O)C1CCC(O)(C2c3ccccc3-c3cncn32)CC1 (single isomer, unassigned) [Example 140d]	3.5
OC1(C2c3ccccc3-c3cncn32)CCCc2ccncc21 (single isomer, unassigned) [Example 141a]	17
OC1(C2c3ccccc3-c3cncn32)CCCc2ccncc21 (single isomer, unassigned) [Example 141b]	3.8
OC1(C2c3ccccc3-c3cncn32)CCCc2ccncc21 (single isomer, unassigned) [Example 141c]	> 25
OC1(C2c3ccccc3-c3cncn32)CCCc2ccncc21 (single isomer, unassigned) [Example 141d]	> 25
CS(=O)(=O)c1ccc2c(c1)[C@@H](O)[C@H]([C@H]1c3ccccc3-c3cncn31)CC2 (single isomer, unassigned) [Example 142a]	0.037
CS(=O)(=O)c1ccc2c(c1)[C@@H](O)[C@H]([C@H]1c3ccccc3-c3cncn31)CC2 (single isomer, unassigned) [Example 142b]	5.9
OC1c2nncn2CCC1C1c2ccccc2-c2cncn21 (single isomer, unassigned) [Example 146-1a]	> 25
OC1c2nncn2CCC1C1c2ccccc2-c2cncn21 (single isomer, unassigned) [Example 146-1b]	7.4
O[C@@H]1c2nncn2CC[C@H]1[C@H]1c2ccccc2-c2cncn21 (single isomer, unassigned) [Example 146-1c]	> 25
OC1c2nncn2CCC1C1c2ccccc2-c2cncn21 (single isomer, unassigned) [Example 146-1d]	12
